Assay results taken from US9724355B2, “Fulvestrant compositions and methods of use” (SHIMODA BIOTECH (PTY) LTD, priority 2010, dated 2017).
In brackets after ≈: the same amount, converted by molar mass. Like-named read-outs stand apart in the source and are kept apart here.

Test: Fulvestrant aqueous solubility in the presence and absence of cyclodextrins (excess drug, shaken 24 h, filtered, HPLC)
Assay type: physicochemical
Conditions: for Quantity of Fulvestrant Diluted Run 2 / Average Concentration / Quantity of Fulvestrant Diluted Run 1: diluted sample; for solubility at 24 h: 22 °C
Experimental: The HPLC system used for the chromatographic determination of fulvestrant consisted of a Waters 600E quaternary gradient pump, a Waters 717plus WISP auto-sampler and a Waters 2487 Dual A, Absorbance detector. Separation was performed using a Phenomenex Luna C18 column (250×4.6 mm; 5 urn) (Phenomenex, Torrance, Calif.) (supplied by Separations, South Africa) and a mobile phase consisting of 50% MeCN:22.5% ddH2O :27.5% MeOH. The mobile phase was degassed and filtered prior to use. […] Sample run times were 15 minutes. The UV detector wavelength was set to 280 nm.
(§1) 1 mL of each of the following aqueous solutions was prepared containing 0; 25; 50; 75 and 100 mg/mL ACD in ddHiO. Excess fulvestrant was added to each of these solutions and the samples were shaken for 24 hours on an orbital shaker at 200 rpm and at 22° C. room temperature. Excess fulvestrant was present in all samples at all times. After 24-hours, the samples were filtered through 0.45 μm syringe tip filters, diluted according to requirements and assayed by HPLC.
as §1, with “5; 7.5; 10” for “25; 50; 75”, “15” for “100”, “BCD” for “ACD”, “ddH2O.” for “ddHiO.”
as §1, with “0;” for “0; 25;”, “100; 150; 200; 250; 300; 350” for “75”, “400” for “100”, “MBCD” for “ACD”, “ddH2O.” for “ddHiO.”
as §1, with “0;” for “0; 25;”, “100; 150; 200; 250; 300; 350” for “75”, “400” for “100”, “HPBCD” for “ACD”, “ddH2O.” for “ddHiO.”
as §1, with “0;” for “0; 25;”, “100; 150; 200; 250; 300; 350” for “75”, “400” for “100”, “SBEBCD” for “ACD”, “ddH2O.” for “ddHiO.”
as §1, with “0;” for “0; 25;”, “100; 150;” for “75”, “200” for “100”, “GCD” for “ACD”, “ddHO.” for “ddHiO.”
as §1, with “0;” for “0; 25;”, “100; 150; 200; 250; 300; 350” for “75”, “400” for “100”, “HPGCD” for “ACD”, “ddH2O.” for “ddHiO.”

SMILES: C[C@]12CC[C@@H]3c4ccc(O)cc4C[C@@H](CCCCCCCCC[S+]([O-])CCCC(F)(F)C(F)(F)F)[C@H]3[C@@H]1CC[C@@H]2O (stereo partly drawn) [Fulvestrant, 7-alpha-[9-(4,4,5,5,5-pentafluoropentylsulphinyl)nonyl]estra-1,3,5-(10)-triene-3,17-beta-diol]
- Quantity of Fulvestrant Diluted Run 2 (150 mg/mL HPBCD): 93.50 µg/mL
- True Fulvestrant Concentration (150 mg/mL HPGCD in ddH2O, 22° C., 24 h): 0.203 mg/mL
- Average Concentration (150 mg/mL HPGCD): 220.81 µg/mL
- Quantity of Fulvestrant Diluted Run 1 (150 mg/mL HPGCD): 220.67 µg/mL
- Quantity of Fulvestrant Diluted Run 2 (150 mg/mL HPGCD): 220.94 µg/mL
- True Fulvestrant Concentration (150 mg/mL MBCD in ddH2O, 22° C., 24 h): 6.744 mg/mL
- Average Concentration (150 mg/mL MBCD): 67.44 µg/mL
- Quantity of Fulvestrant Diluted Run 1 (150 mg/mL MBCD): 67.40 µg/mL
- Quantity of Fulvestrant Diluted Run 2 (150 mg/mL MBCD): 67.47 µg/mL
- True Fulvestrant Concentration (150 mg/mL SBEBCD in ddH2O, 22° C., 24 h): 0.273 mg/mL
- Average Concentration (150 mg/mL SBEBCD): 272.92 µg/mL
- Quantity of Fulvestrant Diluted Run 1 (150 mg/mL SBEBCD): 273.01 µg/mL
- Quantity of Fulvestrant Diluted Run 2 (150 mg/mL SBEBCD): 272.83 µg/mL
- True Fulvestrant Concentration (200 mg/mL GCD in ddH2O, 22° C., 24 h): <0.010 mg/mL
- Average Concentration (200 mg/mL GCD): <10.00 µg/mL
- Quantity of Fulvestrant Diluted Run 1 (200 mg/mL GCD): <10.000 µg/mL
- Quantity of Fulvestrant Diluted Run 2 (200 mg/mL GCD): <10.000 µg/mL
- True Fulvestrant Concentration (200 mg/mL HPBCD in ddH2O, 22° C., 24 h): 1.563 mg/mL
- Average Concentration (200 mg/mL HPBCD): 99.30 µg/mL
- Quantity of Fulvestrant Diluted Run 1 (200 mg/mL HPBCD): 156.30 µg/mL
- Quantity of Fulvestrant Diluted Run 2 (200 mg/mL HPBCD): 42.30 µg/mL
- True Fulvestrant Concentration (200 mg/mL HPGCD in ddH2O, 22° C., 24 h): 0.300 mg/mL
- Average Concentration (200 mg/mL HPGCD): 334.71 µg/mL
- Quantity of Fulvestrant Diluted Run 1 (200 mg/mL HPGCD): 334.75 µg/mL
- Quantity of Fulvestrant Diluted Run 2 (200 mg/mL HPGCD): 334.66 µg/mL
- True Fulvestrant Concentration (200 mg/mL MBCD in ddH2O, 22° C., 24 h): 10.694 mg/mL
- Average Concentration (200 mg/mL MBCD): 106.94 µg/mL
- Quantity of Fulvestrant Diluted Run 1 (200 mg/mL MBCD): 106.87 µg/mL
- Quantity of Fulvestrant Diluted Run 2 (200 mg/mL MBCD): 107.01 µg/mL
- True Fulvestrant Concentration (200 mg/mL SBEBCD in ddH2O, 22° C., 24 h): 0.399 mg/mL
- Average Concentration (200 mg/mL SBEBCD): 398.81 µg/mL
- Quantity of Fulvestrant Diluted Run 1 (200 mg/mL SBEBCD): 398.52 µg/mL
- Quantity of Fulvestrant Diluted Run 2 (200 mg/mL SBEBCD): 399.09 µg/mL
- True Fulvestrant Concentration (250 mg/mL HPBCD in ddH2O, 22° C., 24 h): 2.377 mg/mL
- Average Concentration (250 mg/mL HPBCD): 118.84 µg/mL
- Quantity of Fulvestrant Diluted Run 1 (250 mg/mL HPBCD): 118.71 µg/mL
- Quantity of Fulvestrant Diluted Run 2 (250 mg/mL HPBCD): 118.97 µg/mL
- True Fulvestrant Concentration (250 mg/mL HPGCD in ddH2O, 22° C., 24 h): 0.215 mg/mL
- Average Concentration (250 mg/mL HPGCD): 473.84 µg/mL
- Quantity of Fulvestrant Diluted Run 1 (250 mg/mL HPGCD): 474.68 µg/mL
- Quantity of Fulvestrant Diluted Run 2 (250 mg/mL HPGCD): 472.99 µg/mL
- True Fulvestrant Concentration (250 mg/mL MBCD in ddH2O, 22° C., 24 h): 17.429 mg/mL
- Average Concentration (250 mg/mL MBCD): 174.29 µg/mL
- Quantity of Fulvestrant Diluted Run 1 (250 mg/mL MBCD): 174.30 µg/mL
- Quantity of Fulvestrant Diluted Run 2 (250 mg/mL MBCD): 174.28 µg/mL
- True Fulvestrant Concentration (250 mg/mL SBEBCD in ddH2O, 22° C., 24 h): 0.609 mg/mL
- Average Concentration (250 mg/mL SBEBCD): 304.74 µg/mL
- Quantity of Fulvestrant Diluted Run 1 (250 mg/mL SBEBCD): 304.32 µg/mL
- Quantity of Fulvestrant Diluted Run 2 (250 mg/mL SBEBCD): 305.15 µg/mL
- True Fulvestrant Concentration (300 mg/mL HPBCD in ddH2O, 22° C., 24 h): 3.312 mg/mL
- Average Concentration (300 mg/mL HPBCD): 165.62 µg/mL
- Quantity of Fulvestrant Diluted Run 1 (300 mg/mL HPBCD): 164.70 µg/mL
- Quantity of Fulvestrant Diluted Run 2 (300 mg/mL HPBCD): 166.54 µg/mL
- True Fulvestrant Concentration (300 mg/mL HPGCD in ddH2O, 22° C., 24 h): 0.603 mg/mL
- Average Concentration (300 mg/mL HPGCD): 392.50 µg/mL
- Quantity of Fulvestrant Diluted Run 1 (300 mg/mL HPGCD): 400.24 µg/mL
- Quantity of Fulvestrant Diluted Run 2 (300 mg/mL HPGCD): 384.76 µg/mL
- True Fulvestrant Concentration (300 mg/mL MBCD in ddH2O, 22° C., 24 h): 22.673 mg/mL
- Average Concentration (300 mg/mL MBCD): 226.73 µg/mL
- Quantity of Fulvestrant Diluted Run 1 (300 mg/mL MBCD): 226.52 µg/mL
- Quantity of Fulvestrant Diluted Run 2 (300 mg/mL MBCD): 226.94 µg/mL
- True Fulvestrant Concentration (300 mg/mL SBEBCD in ddH2O, 22° C., 24 h): 0.852 mg/mL
- Average Concentration (300 mg/mL SBEBCD): 425.89 µg/mL
- Quantity of Fulvestrant Diluted Run 1 (300 mg/mL SBEBCD): 425.82 µg/mL
- Quantity of Fulvestrant Diluted Run 2 (300 mg/mL SBEBCD): 425.96 µg/mL
- True Fulvestrant Concentration (350 mg/mL HPBCD in ddH2O, 22° C., 24 h): 4.305 mg/mL
- Average Concentration (350 mg/mL HPBCD): 215.26 µg/mL
- Quantity of Fulvestrant Diluted Run 1 (350 mg/mL HPBCD): 215.41 µg/mL
- Quantity of Fulvestrant Diluted Run 2 (350 mg/mL HPBCD): 215.10 µg/mL
- True Fulvestrant Concentration (350 mg/mL HPGCD in ddH2O, 22° C., 24 h): 0.802 mg/mL
- Average Concentration (350 mg/mL HPGCD): 502.97 µg/mL
- Quantity of Fulvestrant Diluted Run 1 (350 mg/mL HPGCD): 500.71 µg/mL
- Quantity of Fulvestrant Diluted Run 2 (350 mg/mL HPGCD): 505.22 µg/mL
- True Fulvestrant Concentration (350 mg/mL MBCD in ddH2O, 22° C., 24 h): 29.275 mg/mL
- Average Concentration (350 mg/mL MBCD): 292.75 µg/mL
- Quantity of Fulvestrant Diluted Run 1 (350 mg/mL MBCD): 293.21 µg/mL
- Quantity of Fulvestrant Diluted Run 2 (350 mg/mL MBCD): 292.29 µg/mL
- True Fulvestrant Concentration (350 mg/mL SBEBCD in ddH2O, 22° C., 24 h): 1.140 mg/mL
- Average Concentration (350 mg/mL SBEBCD): 379.96 µg/mL
- Quantity of Fulvestrant Diluted Run 1 (350 mg/mL SBEBCD): 382.24 µg/mL
- Quantity of Fulvestrant Diluted Run 2 (350 mg/mL SBEBCD): 377.67 µg/mL
- True Fulvestrant Concentration (400 mg/mL HPBCD in ddH2O, 22° C., 24 h): 5.473 mg/mL
- Average Concentration (400 mg/mL HPBCD): 273.67 µg/mL
- Quantity of Fulvestrant Diluted Run 1 (400 mg/mL HPBCD): 275.20 µg/mL
- Quantity of Fulvestrant Diluted Run 2 (400 mg/mL HPBCD): 272.14 µg/mL
- True Fulvestrant Concentration (400 mg/mL HPGCD in ddH2O, 22° C., 24 h): 1.061 mg/mL
- Average Concentration (400 mg/mL HPGCD): 468.43 µg/mL
- Quantity of Fulvestrant Diluted Run 1 (400 mg/mL HPGCD): 486.39 µg/mL
- Quantity of Fulvestrant Diluted Run 2 (400 mg/mL HPGCD): 450.47 µg/mL
- True Fulvestrant Concentration (400 mg/mL MBCD in ddH2O, 22° C., 24 h): 35.892 mg/mL
- Average Concentration (400 mg/mL MBCD): 358.92 µg/mL
- Quantity of Fulvestrant Diluted Run 1 (400 mg/mL MBCD): 359.13 µg/mL
- Quantity of Fulvestrant Diluted Run 2 (400 mg/mL MBCD): 358.71 µg/mL
- True Fulvestrant Concentration (400 mg/mL SBEBCD in ddH2O, 22° C., 24 h): 1.507 mg/mL
- Average Concentration (400 mg/mL SBEBCD): 502.17 µg/mL
- Quantity of Fulvestrant Diluted Run 1 (400 mg/mL SBEBCD): 503.13 µg/mL
- Quantity of Fulvestrant Diluted Run 2 (400 mg/mL SBEBCD): 501.21 µg/mL
- solubility at 24 h (aqueous cyclodextrin solution, aqueous with cosolvent or surfactant or cyclodextrin, thermodynamic from solid, enhancement with ACD, SBEBCD and HPGCD, read-out: fulvestrant aqueous solubilities): 1000 to 2000 µg/mL
- solubility at 24 h (aqueous cyclodextrin solution, aqueous with cosolvent or surfactant or cyclodextrin, thermodynamic from solid, in 400 mg/mL HPBCD, read-out: aqueous solubility of fulvestrant): 5500 µg/mL (≈ 9.06 mM)
- solubility at 24 h (aqueous cyclodextrin solution, aqueous with cosolvent or surfactant or cyclodextrin, thermodynamic from solid, in 400 mg/mL MBCD, read-out: fulvestrant aqueous solubility): 35900 µg/mL (≈ 59.2 mM)
- solubility thermodynamic at 24 h (water (ddH2O) without cyclodextrin, water, thermodynamic from solid, 0 mg/mL SBEBCD in ddH2O, 22° C., 24 h, read-out: True Fulvestrant Concentration): < 10 µg/mL
- solubility at 24 h (water (ddH2O), water, thermodynamic from solid, absence of cyclodextrin, read-out: aqueous solubility of fulvestrant): < 10 µg/mL
